Test results published in US5786492A, “Halichondrins” (Pharma Mar, S.A., priority 1992, dated 1998).
Converted amounts (≈) assume the structure as drawn.

System: P388 cell line
Assay: antitumor P388 bioassay
Format: cell-based, murine
Details: for IC50, murine leukaemia cell (P388 cell line): text comparison of three halichondrins
Source text: Most of the compounds have been submitted to the antitumor P388 bioassay.

Row | Structure (SMILES) | IC50 against P388 cell line (conc 0.0001 (unit of conc not given)) | IC50 against P388 cell line (conc 0.001 (unit of conc not given)) | IC50 against P388 cell line (other day, conc 0.001 (unit of conc not given)) | IC50, murine leukaemia cell (P388 cell line)
1 | C=C1C[C@@H]2CC[C@@]34C[C@H]5O[C@H]6[C@@H](O3)[C@H]3O[C@H](CC[C@@H]3O[C@H]6[C@H]5O4)CC(=O)O[C@@H]3[C@@H](C)[C@@H]4O[C@@H]5C[C@]6(C[C@@H]7O[C@]8(C[C@H](C)[C@@H]9O[C@H]([C@@H](O)C[C@@H](O)CO)C[C@@H]9O8)C[C@H](C)[C@@H]7O6)O[C@@H]5C[C@@H]4O[C@H]3C[C@H]3O[C@@H](CC[C@@H]1O2)C[C@@H](C)C3=C [Halichondrin B] | 0.78 ng/mL (≈ 0.702 nM) | 1.58 ng/mL (≈ 1.42 nM) | < 0.09 ng/mL | 6.7 ng/mL (≈ 6.03 nM)
2 | C=C1C[C@@H]2CC[C@@]34C[C@H]5O[C@H]6[C@@H](O3)[C@H]3O[C@H](CC[C@@H]3O[C@H]6[C@H]5O4)CC(=O)O[C@@H]3[C@@H](C)[C@@H]4O[C@@H]5C[C@]6(C[C@@H]7O[C@]8(C[C@H](C)[C@@H]9O[C@@H]%10CC(C(O)CO)O[C@@H]%10C[C@@H]9O8)C[C@H](C)[C@@H]7O6)O[C@@H]5C[C@@H]4O[C@H]3C[C@H]3O[C@@H](CC[C@@H]1O2)C[C@@H](C)C3=C (some centres unmarked) [Homohalichondrin B] |  |  |  | 6.4 ng/mL (≈ 5.7 nM)
